These results are taken from patent US7696184B2, “Amino-propanol derivatives as sphingosine-1-phosphate receptor modulator” (Novartis AG, priority 2003, dated 2010).

In test [1] the test system is peripheral blood lymphocytes. The experiment in a line: In vivo: Blood Lymphocyte Depletion. The following applies: rats, p.o. As to the method: B. In vivo: Blood Lymphocyte Depletion
A compound of formula I or the vehicle is administered orally by gavage to rats. Tail blood for hematological monitoring is obtained on day -1 to give the baseline individual values, and at 2, 6, 24, 48 and 72 hours after application. In this assay, the compounds of formula I deplete peripheral blood lymphocytes when administered at a dose of 0.03 to 3 mg/kg. For example, following results are obtained: depletion of peripheral blood lymphocytes by more than 50%

The target of test [2] is T1, human S1P receptor EDG-1 (S1P1) (Homo sapiens, UniProt P21453).
T1 construct: expressed in transfected cells
T1 sequence (P21453 whole entry): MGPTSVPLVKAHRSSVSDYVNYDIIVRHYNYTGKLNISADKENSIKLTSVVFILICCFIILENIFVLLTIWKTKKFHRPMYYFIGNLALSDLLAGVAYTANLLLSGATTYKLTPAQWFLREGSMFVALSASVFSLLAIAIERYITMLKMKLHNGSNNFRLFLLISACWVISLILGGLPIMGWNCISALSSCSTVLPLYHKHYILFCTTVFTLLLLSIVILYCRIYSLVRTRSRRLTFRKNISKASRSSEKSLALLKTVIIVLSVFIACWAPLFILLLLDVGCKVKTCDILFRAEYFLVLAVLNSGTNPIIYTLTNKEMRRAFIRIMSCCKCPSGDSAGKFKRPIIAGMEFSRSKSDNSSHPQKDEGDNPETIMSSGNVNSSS
The test can be described thus: S1P receptor profiling, GTP[γ-35S] binding SPA, S1P1. The test is classed as biochemical. As to conditions: for EC50: GTP[γ-35S] binding, membranes of transfected CHO or RH7777 cells. As to the method:
(§1) Sphingosine-1-phosphate (S1P) Receptor Profiling
(§2) Agonist activities of compounds are tested on the human SIP receptors EDG-1 (S1P1), EDG-3 (S1P3), EDG-5 (S1P2), EDG-6 (S1P4) and EDG-8 (S1P5). […] The assay technology used is SPA (scintillation proximity based assay). Briefly, DMSO dissolved compounds are serially diluted and added to SPA-bead (Amersham-Pharmacia) immobilised S1P receptor expressing membrane protein (10-20 μg/well) in the presence of 50 mM Hepes, 100 mM NaCl, 10 mM MgCl2, 10 μM GDP, 0.1% fat free BSA and 0.2 nM GTP [γ-^35S] (1200 Ci/mmol). After incubation in 96 well microtiterplates at RT for 120 min, unbound GTP [γ-^35S] is separated by a centrifugation step. Luminescence of SPA beads triggered by membrane bound GTP [γ-^35S] is quantified with a TOPcount plate reader (Packard). EC50s are calculated using standard curve fitting software.

Test [3] has as its target T2, human S1P receptor EDG-5 (S1P2) (Homo sapiens, UniProt O95136).
T2 construct: expressed in transfected cells
The experiment in a line: S1P receptor profiling, GTP[γ-35S] binding SPA, S1P2. It counts as biochemical. The following applies: membranes of transfected CHO or RH7777 cells. As to the method: as §1, §2

The target of test [4] is T3, human S1P receptor EDG-3 (S1P3) (Homo sapiens, UniProt Q99500).
T3 construct: expressed in transfected cells
T3 sequence (Q99500 whole entry): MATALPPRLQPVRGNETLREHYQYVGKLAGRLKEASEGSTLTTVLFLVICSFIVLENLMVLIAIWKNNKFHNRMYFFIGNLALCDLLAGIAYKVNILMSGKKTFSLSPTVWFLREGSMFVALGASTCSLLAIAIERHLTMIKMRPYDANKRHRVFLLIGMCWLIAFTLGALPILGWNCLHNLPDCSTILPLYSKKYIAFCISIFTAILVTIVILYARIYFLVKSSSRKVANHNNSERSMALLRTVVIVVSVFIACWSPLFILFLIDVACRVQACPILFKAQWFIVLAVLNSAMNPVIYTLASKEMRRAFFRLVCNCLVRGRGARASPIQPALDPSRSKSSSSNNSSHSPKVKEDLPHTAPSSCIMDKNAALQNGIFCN
The test can be described thus: S1P receptor profiling, GTP[γ-35S] binding SPA, S1P3. As to conditions: membranes of transfected CHO or RH7777 cells. The test is classed as biochemical. As to the method: as §1, §2

The target of test [5] is T4, human S1P receptor EDG-6 (S1P4) (Homo sapiens, UniProt O95977).
T4 construct: expressed in transfected cells
T4 sequence (O95977 1-384): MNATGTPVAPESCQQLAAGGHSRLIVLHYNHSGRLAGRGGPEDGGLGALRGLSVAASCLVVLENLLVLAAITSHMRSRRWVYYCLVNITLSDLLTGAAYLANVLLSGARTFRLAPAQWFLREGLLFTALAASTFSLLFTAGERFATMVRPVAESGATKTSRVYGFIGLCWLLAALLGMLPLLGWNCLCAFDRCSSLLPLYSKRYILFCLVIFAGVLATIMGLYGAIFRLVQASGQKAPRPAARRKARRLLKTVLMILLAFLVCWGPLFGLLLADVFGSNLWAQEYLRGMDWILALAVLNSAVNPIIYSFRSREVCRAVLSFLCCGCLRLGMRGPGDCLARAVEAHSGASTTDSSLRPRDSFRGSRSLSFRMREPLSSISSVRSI
The test can be described thus: S1P receptor profiling, GTP[γ-35S] binding SPA, S1P4. The test is classed as biochemical. The following applies: for EC50: GTP[γ-35S] binding, membranes of transfected CHO or RH7777 cells; for S1P4 mode of action: column beside S1P4 EC50. As to the method:
as §1, §2

Test [6] addresses T5, human S1P receptor EDG-8 (S1P5) (Homo sapiens, UniProt Q9H228).
T5 construct: expressed in transfected cells
The test can be described thus: S1P receptor profiling, GTP[γ-35S] binding SPA, S1P5. The test is classed as biochemical. The following applies: for EC50: GTP[γ-35S] binding, membranes of transfected CHO or RH7777 cells; for S1P5 mode of action: column beside S1P5 EC50. Here is the method: as §1, §2

T2 sequence (O95136 whole entry): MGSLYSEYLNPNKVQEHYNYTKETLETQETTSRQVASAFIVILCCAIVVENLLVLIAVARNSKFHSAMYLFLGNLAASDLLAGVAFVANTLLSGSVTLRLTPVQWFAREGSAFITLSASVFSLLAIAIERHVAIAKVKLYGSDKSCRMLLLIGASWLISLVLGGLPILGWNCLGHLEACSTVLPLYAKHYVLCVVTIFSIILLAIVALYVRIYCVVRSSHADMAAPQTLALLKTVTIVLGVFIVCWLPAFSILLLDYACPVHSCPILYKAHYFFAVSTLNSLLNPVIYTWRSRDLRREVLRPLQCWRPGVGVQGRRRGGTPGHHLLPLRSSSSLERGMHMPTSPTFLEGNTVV
T5 sequence (Q9H228 whole entry): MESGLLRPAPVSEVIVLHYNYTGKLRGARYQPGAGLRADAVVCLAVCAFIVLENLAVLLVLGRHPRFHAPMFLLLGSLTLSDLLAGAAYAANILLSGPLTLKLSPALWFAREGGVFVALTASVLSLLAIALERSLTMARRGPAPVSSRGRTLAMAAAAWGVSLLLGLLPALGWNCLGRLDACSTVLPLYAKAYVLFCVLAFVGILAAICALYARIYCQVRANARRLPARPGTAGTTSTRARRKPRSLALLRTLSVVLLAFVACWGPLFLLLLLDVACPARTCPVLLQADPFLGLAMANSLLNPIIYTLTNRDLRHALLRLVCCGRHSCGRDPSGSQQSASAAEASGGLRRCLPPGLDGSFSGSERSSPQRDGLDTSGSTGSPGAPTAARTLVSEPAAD

For `CCCCCOc1c(Cl)cc(CC[C@@](C)(N)CO)cc1Cl` [Example 1, (R)-2-Amino-4-(3,5-dichloro-4-pentyloxy-phenyl)-2-methyl-butan-1-ol Hydrotriflate], the results for the “dose giving depletion of peripheral blood lymphocytes by more than 50%” value (shortened to “dose giving depletion … by more than 50%”) in test [1] (after 6 h) and in test [1] (after 48 h) were 0.5 mg/kg and > 1 mg/kg, respectively.

In the case of `CCCCCOc1c(Cl)cc(CC[C@@](C)(N)COP(=O)(O)O)cc1Cl` [Example 4, Phosphoric acid mono-[(R)-2-amino-4-(3,5-dichloro-4-pentyloxy-phenyl)-2-methyl-butyl]ester], in test [2], the “S1P1 mode of action” value was “Agon”. Moreover, the EC50 is 0.2 nM in test [2]; > 10000 nM in test [3]; > 10000 nM in test [4]; 0.2 nM in test [5]; 0.2 nM in test [6]. The “S1P4 mode of action” value in test [5] was “Agon”. For the same molecule, the “S1P5 mode of action” value in test [6] is “Agon”.

As to `COc1cc(CC[C@@](C)(N)CO)cc(Cl)c1OCCCC(F)(F)C(F)(F)F.Cl` [Example 5, (R)-2-Amino-4-[3-chloro-5-methoxy-4-(4,4,5,5,5-pentafluoro-pentyloxy)-phenyl]-2-methyl-butan-1-ol Hydrochloride], the entries for the “dose giving depletion … by more than 50%” value in test [1] (after 6 h) and in test [1] (after 48 h) were 0.2 mg/kg and > 1 mg/kg, respectively.

Turning to `COc1cc(CC[C@@](C)(N)COP(=O)(O)O)cc(Cl)c1OCCCC(F)(F)C(F)(F)F` [Example 6, Phosphoric acid mono-{(R)-2-amino-4-[3-chloro-5-methoxy-4-(4,4,5,5,5-pentafluoro-pentyloxy)-phenyl]-2-methyl-butyl}ester], the “S1P1 mode of action” value in test [2] is reported as “Agon”. Further, the concentration giving a half-maximal response (EC50) in test [2] is 1.3 nM; in test [3] it was > 10000 nM; in test [4] it was > 10000 nM; in test [5] it was 0.8 nM; in test [6], 0.2 nM. Moreover, in test [5], the “S1P4 mode of action” value is “Agon”. The “S1P5 mode of action” value in test [6] is reported as “Agon”.

As to `CCOc1ccc(CCOc2c(Cl)cc(CC[C@@](C)(N)CO)cc2OC)cc1` [Example 9, (R-2-Amino-4-{3-chloro-4-[2-(4-ethoxy-phenyl)-ethoxy]-5-methoxy-phenyl}-2-methyl-butan-1-ol Hydrotriflate], in test [1] (after 6 h), the “dose giving depletion … by more than 50%” value was 0.2 mg/kg.

As for `CCOc1ccc(CCOc2c(Cl)cc(CC[C@@](C)(N)COP(=O)(O)O)cc2OC)cc1` [Example 10, Phosphoric acid mono-((R)-2-amino-4-{3-chloro-4-[2-(4-ethoxy-phenyl)-ethoxy]-5-methoxy-phenyl}-2-methyl-butyl)ester], the EC50 in test [2] was 0.3 nM; in test [3], > 10000 nM; in test [4] it was 111 nM; in test [5], > 10000 nM; in test [6], 2.5 nM.
